US8357709B2, “2,4-disubstituted pyrrolidine orexin receptor antagonists” (Merck Sharp & Dohme Corp., priority 2008, dated 2013)

What was measured:
[1] = target: T1, orexin-1 receptor (OX1R) (UniProt O43613); test: radioligand binding assay, membranes from CHO cells expressing OX1 receptor; conditions: CHO cell membranes
T1 sequence (O43613 1-425): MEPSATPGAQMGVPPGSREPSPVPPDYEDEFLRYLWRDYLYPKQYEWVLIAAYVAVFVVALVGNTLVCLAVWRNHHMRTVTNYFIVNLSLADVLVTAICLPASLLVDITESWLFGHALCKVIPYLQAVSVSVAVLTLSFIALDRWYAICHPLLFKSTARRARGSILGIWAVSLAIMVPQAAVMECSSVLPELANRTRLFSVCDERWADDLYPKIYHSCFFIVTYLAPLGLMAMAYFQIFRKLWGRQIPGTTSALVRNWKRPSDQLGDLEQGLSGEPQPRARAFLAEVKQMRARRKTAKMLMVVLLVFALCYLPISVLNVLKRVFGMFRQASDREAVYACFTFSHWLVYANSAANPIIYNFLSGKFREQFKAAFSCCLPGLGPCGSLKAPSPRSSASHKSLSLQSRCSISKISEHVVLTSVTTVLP
Method: (§1) The utility of the compounds in accordance with the present invention as orexin receptor OX1R and/or OX2R antagonists may be readily determined without undue experimentation by methodology well known in the art, including the “FLIPR Ca^2+ Flux Assay” (Okumura et al., Biochem. Biophys. Res. Comm. 280:976-981, 2001). In a typical experiment the OX1 and OX2 receptor antagonistic activity of the compounds of the present invention was determined in accordance with the following experimental method. […] Within the Fluorescent Imaging Plate Reader (FLIPR, Molecular Devices), test compounds are added to the plate in a volume of 25 ul, incubated for 5 min and finally 25 ul of agonist is added. Fluorescence is measured for each well at 1 second intervals for 5 minutes and the height of each fluorescence peak is compared to the height of the fluorescence peak induced by 70 pM Ala-6,12 orexin-A with buffer in place of antagonist. […] Alternatively, compound potency can be assessed by a radioligand binding assay (described in Bergman et. al. Bioorg. Med. Chem. Lett. 2008, 18, 1425-1430) in which the inhibition constant (Ki) is determined in membranes prepared from CHO cells expressing either the orexin-1 (OX1) or orexin-2 (OX2) receptor. The intrinsic orexin receptor antagonist activity of a compound which may be used in the present invention may be determined by these assays.

[2] = target: T2, orexin-2 receptor (OX2R) (Homo sapiens, UniProt O43614); test: radioligand binding assay, membranes from CHO cells expressing OX2 receptor; conditions: CHO cell membranes
T2 construct: expressed in transfected cells; host or cells: CHO cells (membrane preparation)
T2 sequence (O43614 1-444): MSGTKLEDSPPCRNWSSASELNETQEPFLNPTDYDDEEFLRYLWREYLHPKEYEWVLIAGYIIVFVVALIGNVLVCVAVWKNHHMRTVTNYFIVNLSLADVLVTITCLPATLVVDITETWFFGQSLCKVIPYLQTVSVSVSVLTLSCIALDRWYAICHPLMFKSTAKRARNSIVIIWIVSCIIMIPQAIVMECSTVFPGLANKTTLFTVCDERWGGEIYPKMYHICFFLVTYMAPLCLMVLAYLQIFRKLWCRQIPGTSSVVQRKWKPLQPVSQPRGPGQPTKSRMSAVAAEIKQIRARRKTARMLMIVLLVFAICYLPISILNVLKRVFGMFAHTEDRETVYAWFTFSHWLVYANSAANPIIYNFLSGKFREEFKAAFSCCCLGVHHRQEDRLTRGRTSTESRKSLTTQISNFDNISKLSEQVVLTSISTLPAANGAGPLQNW
Method: as §1

Ki [1] [nM]	Ki [2] [nM]	Structure (SMILES)
230	10	Cc1ccc(-n2nccn2)c(C(=O)N2CC(COc3ccc(F)cn3)CC2C)c1 (racemic) [A-7, 5-fluoro-2-({5-methyl-1-[5-methyl-2-(2H-1,2,3-triazol-2-yl)benzoyl]pyrrolidin-3-yl}methoxy)pyridine]
37	5.1	Cc1ccc(-n2nccn2)c(C(=O)N2CC(COc3ccc(F)cn3)CC2C)c1 (single isomer, unassigned) [A-8]
